Results from article PMC12040169 (PLOS Biology, 2025).

Test: in vitro
Conditions: human, hela cells, % viability

| Structure (SMILES) | viability at 28.5 h, 10 µM |
| --- | --- |
| O=C(Cc1c[nH]c2ccccc12)N1CCC2(CCCN(C(=O)c3cscn3)C2)C1 (stereo not drawn) [CBK131590] | 99.1% |
| Cc1ccc(S(=O)(=O)CC(=O)N2CCCC3(CCN(C(=O)Cc4c[nH]c5ccccc45)C3)C2)cc1 (stereo not drawn) [CBK131595] | 90.4% |
| COc1cc(C(=O)N2CCCC3(CCN(C(=O)Cc4c[nH]c5ccccc45)C3)C2)cc(OC)c1OC (stereo not drawn) [CBK131601] | 96% |
| O=C(Cc1c[nH]c2ccccc12)N1CCC2(CCCN(C(=O)c3c(F)cccc3F)C2)C1 (stereo not drawn) [CBK131605] | 85.8% |
| O=C(COc1cccnc1)N1CCCC2(CCN(C(=O)Cc3c[nH]c4ccccc34)C2)C1 (stereo not drawn) [CBK131608] | 105% |
| Cc1cn(CC(=O)N2CCCC3(CCN(C(=O)c4ccoc4)C3)C2)c(=O)[nH]c1=O (stereo not drawn) [CBK131634] | 104% |
| O=C(c1cccnc1)N1CCCC2(CCN(C(=O)c3ccoc3)C2)C1 (stereo not drawn) [CBK131640] | 97% |
| COc1ccc(C(=O)N2CCC3(CCCN(C(=O)Cc4ccc(Cl)c(Cl)c4)C3)C2)cc1OC (stereo not drawn) [CBK131654] | 98.1% |
| COc1ccc(C(=O)N2CCC3(CCCN(C(=O)c4ccc5ncccc5c4)C3)C2)cc1OC (stereo not drawn) [CBK131656] | 92.4% |
| COc1ccc2[nH]cc(CC(=O)N3CCCC4(CCN(C(=O)c5ccc(OC)c(OC)c5)C4)C3)c2c1 (stereo not drawn) [CBK131666] | 81.1% |
| O=C(O)CC1SC(Nc2cccc(Cl)c2)=NC1=O (stereo not drawn) [CBK131683] | 105% |
| N#Cc1c(-c2ccccc2)cc(-c2ccccc2)nc1SCC(=O)O [CBK131684] | 92.6% |
| O=C(O)CSc1nnc(-c2ccc3c(c2)OCO3)n1-c1ccccc1 [CBK131690] | 105% |
| COc1ccc(-c2nc(Nc3cccc(C(F)(F)F)c3)sc2CC(=O)O)cc1OC [CBK131693] | 97.9% |
| O=C(CSCc1ccc(Cl)cc1)Nc1ccc(O)cc1C(=O)O [CBK131694] | 97.1% |
| COc1cc(-c2nnc(SCC(=O)O)n2-c2ccccc2)cc(OC)c1OC [CBK131695] | 104% |
| CC(=O)Nc1ccc(NC(=O)CSCc2ccc(Cl)cc2Cl)cc1 [CBK131696] | 96.4% |
| O=C(CCCc1ccccc1)Nc1ccc(O)cc1C(=O)O [CBK131699] | 99.7% |
| O=C(CSCc1ccc(Cl)cc1Cl)Nc1cccc(O)c1 [CBK131702] | 110% |
| Cc1ccc(SCC(=O)Nc2ccc(O)cc2C(=O)O)cc1 [CBK131703] | 118% |
| Cc1c(NC(=O)CSCc2ccc(Cl)cc2Cl)cccc1C(=O)O [CBK131704] | 104% |
| COc1ccc(Nc2nc(-c3ccc(F)cc3)cs2)c(OC)c1 [CBK131705] | 87.5% |
| O=C(CSCc1ccc([N+](=O)[O-])cc1)Nc1ccc(O)cc1C(=O)O [CBK131710] | 89.4% |
| NS(=O)(=O)c1ccc(C(=O)N2CCC3(CCN(C(=O)c4ccoc4)C3)C2)cc1 (stereo not drawn) [CBK131736] | 95.2% |

| Structure (SMILES) | viability at 28.5 h, 10 µM |
| --- | --- |
| O=C(c1cncnc1)N1CCC2(CCN(C(=O)c3ccoc3)C2)C1 (stereo not drawn) [CBK131755] | 86.2% |
| COc1ccc(C(=O)N2CCC3(CCN(C(=O)Cc4c[nH]cn4)C3)C2)cc1OC (stereo not drawn) [CBK131768] | 107% |
| COc1ccc(C(=O)N2CCC3(CCN(C(=O)CC4CCCCC4)C3)C2)cc1OC (stereo not drawn) [CBK131770] | 94.7% |
| COc1ccc(C(=O)N2CCC3(CCN(C(=O)c4cccc(C#N)c4)C3)C2)cc1OC (stereo not drawn) [CBK131773] | 98.3% |
| COc1ccc(C(=O)N2CCC3(CCN(C(=O)/C=C/c4ccc5c(c4)OCO5)C3)C2)cc1OC (stereo not drawn) [CBK131775] | 96.6% |
| COc1ccc(C(=O)N2CCC3(CCN(C(=O)Cc4cc(C)no4)C3)C2)cc1OC (stereo not drawn) [CBK131784] | 106% |
| COc1ccc(OC(=O)C2COc3ccccc3O2)cc1 (stereo not drawn) [CBK131816] | 100% |
| CS(=O)(=O)c1ccc(Nc2cncc(N3CCC(Sc4ccccn4)CC3)c2C#N)cc1 [CBK131843] | 85.2% |
| CCOC(=O)c1sc2nc(N3CCOCC3)c3c(c2c1N)CCCC3 [CBK131870] | 100% |
| CCc1nc2sc(C(N)=O)c(N)c2c2c1CCCC2 [CBK131872] | 101% |
| COc1ccc(CSc2nc(N)c3c4c(sc3n2)CCCC4)cc1 [CBK131876] | 85.8% |
| COc1ccc(-c2c3c(nc4sc(C(=O)N5CCOCC5)c(N)c24)CC(C)(C)CC3=O)cc1 [CBK131884] | 91.7% |
| O=C(O)CCc1ccc(-c2ccc(F)cc2)n1-c1cc(Cl)ccc1O [CBK131891] | 92% |
| O=C(O)CCc1ccc(-c2ccc(Br)cc2)n1-c1ccccc1O [CBK131892] | 93.9% |
| COc1ccc(-c2ccc(CCC(=O)O)n2-c2ccc(N(C)C)cc2)cc1 [CBK131895] | 110% |
| COc1ccc(CCC(=O)Nc2cccc(-c3ccc(OC4CCNCC4)cc3)c2)cc1OC [CBK131925T] | 100% |
| CS(=O)(=O)c1ccc(Nc2ccc3c(c2)COC2(CCN(C(=O)Cc4ccc(F)cc4F)C2)O3)cc1 (stereo not drawn) [CBK131948] | 90.8% |
| O=C(Cc1cc(F)cc(F)c1F)N1CCC(Sc2ccc(-c3ccccc3)cc2)CC1 [CBK131952] | 94.5% |
| O=C(c1ccc2c(c1)CCO2)N1CCC(Sc2ccc(-c3ccccc3)cc2)CC1 [CBK131953] | 94.8% |
| O=C(c1ccc2c(c1)CCO2)N1CCC(S(=O)(=O)c2ccc(-c3ccccc3)cc2)CC1 [CBK131957] | 109% |
| CC(C)(C)OC(=O)N1CCC2(CC1)NC(=O)c1cc(-c3cccc(S(C)(=O)=O)c3)ccc1O2 [CBK131967] | 102% |
| CC(=O)c1cccc(-c2ccc3c(c2)C(=O)NC2(CCN(C(=O)OC(C)(C)C)CC2)O3)c1 [CBK131969] | 95.4% |
| O=C(c1c(F)cc(-c2cncc(-c3ccc(O)cc3)n2)cc1F)N1CCOCC1 [CBK131973] | 90.5% |
| COc1cc(CN2CCCC3(CCN(C(=O)c4cc(F)c(F)cc4F)C3)C2)cc(OC)c1OC (stereo not drawn) [CBK131988] | 101% |

| Structure (SMILES) | viability at 28.5 h, 10 µM |
| --- | --- |
| O=C(c1cc(F)c(F)cc1F)N1CCC2(CCCN(Cc3ccc(Cl)c(Cl)c3)C2)C1 (stereo not drawn) [CBK131990] | 95.1% |
| N#Cc1cccc(CN2CCCC3(CCN(C(=O)c4cc(F)c(F)cc4F)C3)C2)c1 (stereo not drawn) [CBK131993] | 100% |
| O=C(c1cc(F)c(F)cc1F)N1CCC2(CCCN(CCS(=O)(=O)c3ccccc3)C2)C1 (stereo not drawn) [CBK132003] | 105% |
| O=C(c1cc(F)c(F)cc1F)N1CCC2(CCCN(CCCn3c(=O)[nH]c4ccccc43)C2)C1 (stereo not drawn) [CBK132004] | 84.9% |
| O=C1NC(=O)C(CCCCN2CCCC3(CCN(C(=O)c4cc(F)c(F)cc4F)C3)C2)N1 (stereo not drawn) [CBK132020] | 97.5% |
| CN(C)C(=O)CN1CCCC2(CCN(C(=O)c3cc(F)c(F)cc3F)C2)C1 (stereo not drawn) [CBK132024] | 93.5% |
| Cc1nc(CN2CCCC3(CCN(C(=O)c4cc(F)c(F)cc4F)C3)C2)cs1 (stereo not drawn) [CBK132026] | 119% |
| COc1cc(CN2CCCC3(CCN(C(=O)Cc4c[nH]c5ccccc45)C3)C2)cc(OC)c1OC (stereo not drawn) [CBK132027] | 99.5% |
| O=C(Cc1c[nH]c2ccccc12)N1CCC2(CCCN(Cc3c(F)cccc3F)C2)C1 (stereo not drawn) [CBK132031] | 115% |
| N#Cc1cccc(CN2CCCC3(CCN(C(=O)Cc4c[nH]c5ccccc45)C3)C2)c1 (stereo not drawn) [CBK132032] | 103% |
| NC(=O)CCN1CCCC2(CCN(C(=O)Cc3c[nH]c4ccccc34)C2)C1 (stereo not drawn) [CBK132041] | 106% |
| O=C(Cc1c[nH]c2ccccc12)N1CCC2(CCCN(CCO)C2)C1 (stereo not drawn) [CBK132045] | 95.9% |
| NC(=O)CN1CCCC2(CCN(C(=O)Cc3c[nH]c4ccccc34)C2)C1 (stereo not drawn) [CBK132046] | 87.4% |
| O=C(CN1CCCC2(CCN(C(=O)Cc3c[nH]c4ccccc34)C2)C1)Nc1ncccn1 (stereo not drawn) [CBK132048] | 86.7% |
| O=C(CN1CCCC2(CCN(C(=O)Cc3c[nH]c4ccccc34)C2)C1)c1ccsc1 (stereo not drawn) [CBK132053] | 96.3% |
| O=C1NC(=O)C(CCCCN2CCCC3(CCN(C(=O)Cc4c[nH]c5ccccc45)C3)C2)N1 (stereo not drawn) [CBK132059] | 83.8% |
| Cc1ccc2cc(CN(Cc3ccccc3)C(=O)NCc3c(Cl)cccc3Cl)c(=O)[nH]c2c1C [CBK132088] | 81.8% |
| CCN(CC)Cc1ccc2[nH]c(=O)c(CNCc3ccc(OC)cc3)cc2c1 [CBK132113] | 106% |
| O=C(c1cc(F)c(F)cc1F)N1CCC2(CCN(Cc3nc4ccccc4[nH]3)C2)C1 (stereo not drawn) [CBK132134] | 89.9% |
| O=C(c1cc(F)c(F)cc1F)N1CCC2(CCN(CCN3CCOCC3)C2)C1 (stereo not drawn) [CBK132145C] | 102% |
| O=C1NC(=O)C(CCCCN2CCC3(CCN(C(=O)c4cc(F)c(F)cc4F)C3)C2)N1 (stereo not drawn) [CBK132147] | 84.8% |
| COc1ccc(C(=O)N2CCC3(CCN(Cc4cccc(C#N)c4)C3)C2)cc1OC (stereo not drawn) [CBK132153] | 87.7% |
| COc1ccc(C(=O)N2CCC3(CCN(Cc4cc(=O)[nH]c(=O)[nH]4)C3)C2)cc1OC (stereo not drawn) [CBK132162] | 108% |

Same assay, conditions: human, hela cells, % viability, bulk resorufin, single well

| Structure (SMILES) | viability at 28.5 h, 10 µM |
| --- | --- |
| CCOC(=O)N1CCC2(CC1)OCc1ccc(C#N)cc1O2 [CBK131679] | 97.2% |
| CCOC(=O)C1(c2ccccc2)CCN(C(=O)c2ccc(OC(F)(F)F)cc2)CC1 [CBK132174] | 96.2% |
| CCOC(=O)C1(c2ccccc2)CCN(C(=O)Cc2ccc(Cl)c(Cl)c2)CC1 [CBK132175] | 113% |
| CCOC(=O)C1(c2ccccc2)CCN(C(=O)COc2ccc(F)cc2)CC1 [CBK132176] | 93.8% |
| CCOC(=O)C1(c2ccccc2)CCN(C(=O)C2COc3ccccc3O2)CC1 (stereo not drawn) [CBK132178] | 93.3% |
| CCOC(=O)C1(c2ccccc2)CCN(C(=O)Cc2nnn[nH]2)CC1 [CBK132182] | 94.6% |
| CCOC(=O)C1(c2ccccc2)CCN(C(=O)COc2ccccc2OC)CC1 [CBK132183] | 87.1% |
| CCOC(=O)C1(c2ccccc2)CCN(C(=O)c2ccc3occc3c2)CC1 [CBK132187] | 92.2% |
| CCOC(=O)C1(c2ccccc2)CCN(C(=O)CC2NC(=O)NC2=O)CC1 (stereo not drawn) [CBK132196] | 93.7% |
| CCOC(=O)C1(c2ccccc2)CCN(C(=O)c2ccco2)CC1 [CBK132199] | 86.2% |
